The source of these data is ChEMBL document CHEMBL3997778, “β-Dihydroagarofuran-Type Sesquiterpenes from the Seeds of Celastrus monospermus and Their Lifespan-Extending Effects on the Nematode Caenorhabditis elegans” (2016).

By ILS is commonly meant the gain in survival time of treated over control animals, in per cent.

Assay [1] concerns Caenorhabditis elegans. Briefly: Increase in life span of Caenorhabditis elegans Bristol N2 at late L4 larval stage at 50 uM in presence of 5-fluorodesoxyuridine relative to control. The format is functional.
Assay [2] relates to Caenorhabditis elegans. In words: Increase in life span of Caenorhabditis elegans Bristol N2 at late L4 larval stage at 100 uM in presence of 5-fluorodesoxyuridine relative to control. In kind it is functional.

Structures are written as SMILES.

In the case of `CC(=O)O[C@H]1[C@@H]2C[C@]3(OC2(C)C)[C@H](C)C[C@H](OC(C)=O)[C@@H](OC(C)=O)[C@@]3(C)[C@H]1OC(=O)c1ccccc1`, the ILS at 50 µM in the assay with Caenorhabditis elegans [1] came to 12%.

As to `CC(=O)O[C@H]1[C@@H]2[C@@H](OC(C)=O)[C@]3(OC2(C)C)[C@H](C)C[C@@H](OC(C)=O)[C@H](OC(C)=O)[C@@]3(C)[C@H]1OC(=O)c1ccccc1`, in the assay with Caenorhabditis elegans [1], the ILS at 50 µM was 15%.

Turning to `CC(=O)O[C@@H]1[C@H]2C[C@H](OC(=O)c3ccccc3)[C@]3(C)[C@@H](OC(C)=O)[C@H](OC(C)=O)C[C@@H](C)[C@@]13OC2(C)C`, the ILS at 50 µM in the assay with Caenorhabditis elegans [1] worked out at 14%.

Consider `CC(=O)O[C@@H]1[C@@H]2[C@@H](OC(C)=O)[C@]3(OC2(C)C)[C@H](C)CC(=O)[C@H](OC(C)=O)[C@@]3(C)[C@@H]1OC(=O)c1ccccc1`, for which the ILS at 50 µM in the assay with Caenorhabditis elegans [1] is 37%.

Turning to `CC(=O)O[C@@H]1[C@@H]2[C@@H](OC(C)=O)[C@]3(OC2(C)C)[C@H](C)C[C@H](OC(=O)/C=C/c2ccccc2)[C@H](OC(C)=O)[C@@]3(C)[C@@H]1OC(=O)c1ccccc1`, in the assay on Caenorhabditis elegans [1], the ILS at 50 µM came out at 15%.

For the compound `CC(=O)OC[C@]12[C@@H](OC(=O)c3ccccc3)[C@@H](OC(C)=O)[C@@H]3[C@@H](OC(C)=O)[C@]1(OC3(C)C)[C@H](C)C[C@H](OC(C)=O)[C@@H]2OC(C)=O`, the ILS at 50 µM in the assay with Caenorhabditis elegans [1] stood at 16%.

For the compound `CC(=O)O[C@H]1[C@@H]2[C@@H](OC(=O)c3ccccc3)[C@]3(OC2(C)C)[C@H](C)C[C@@H](OC(C)=O)[C@H](OC(C)=O)[C@@]3(C)[C@H]1OC(=O)c1ccccc1`, in the assay on Caenorhabditis elegans [1], the ILS at 50 µM came to 28%.

In the case of `CC(=O)O[C@@H]1[C@@H]2[C@@H](OC(C)=O)[C@]3(OC2(C)C)[C@H](C)CC[C@H](O)[C@@]3(C)[C@@H]1OC(=O)c1ccccc1`, in the assay on Caenorhabditis elegans [1], the increase in lifespan (ILS) at 50 µM is 16%.

Turning to `CO[C@H]1C[C@@H]2CC[C@@H](C)[C@@](O)(O2)C(=O)C(=O)N2CCCC[C@H]2C(=O)O[C@H]([C@H](C)C[C@@H]2CC[C@@H](O)[C@H](OC)C2)CC(=O)[C@H](C)/C=C(\C)[C@@H](O)[C@@H](OC)C(=O)[C@H](C)C[C@H](C)/C=C/C=C/C=C/1C` [SIROLIMUS], the ILS at 100 µM in the assay on Caenorhabditis elegans [2] came out at 38%.

For `CC(=O)O[C@@H]1[C@@H]2[C@@H](OC(C)=O)[C@]3(OC2(C)C)[C@H](C)C[C@@H](OC(C)=O)[C@H](OC(C)=O)[C@@]3(C)[C@@H]1OC(=O)c1ccccc1`, the ILS at 50 µM in the assay with Caenorhabditis elegans [1] is 17%.
